Laboratory results: patent US10150760B2, “Compounds for use in preparing heterocyclic triazole agonists of the APJ receptor” (AMGEN INC., priority 2016, dated 2018)
pEC50: −log10 of the molar value.

Target: human APJ receptor (Homo sapiens (Human), UniProt P35414)
Assay: [35S]GTPγS binding assay on membranes from CHO cells stably expressing human APJ receptor
Assay type: biochemical
Details: read-out: Activity hAPJ SPA EC50 IP
Outline: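 Agonist-driven [35S]GTPγS (0.2 nM) binding was measured over 90 min at room temperature on human APJ-expressing CHO membranes with bead capture, in buffer containing 3 μM GDP, 200 mM NaCl and 5 mM MgCl2 (pH 7.5). Excess unlabelled GTPγS (100 μM) gave nonspecific signal; EC50 from non-linear fits.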

human APJ receptor, sequence (P35414 whole entry): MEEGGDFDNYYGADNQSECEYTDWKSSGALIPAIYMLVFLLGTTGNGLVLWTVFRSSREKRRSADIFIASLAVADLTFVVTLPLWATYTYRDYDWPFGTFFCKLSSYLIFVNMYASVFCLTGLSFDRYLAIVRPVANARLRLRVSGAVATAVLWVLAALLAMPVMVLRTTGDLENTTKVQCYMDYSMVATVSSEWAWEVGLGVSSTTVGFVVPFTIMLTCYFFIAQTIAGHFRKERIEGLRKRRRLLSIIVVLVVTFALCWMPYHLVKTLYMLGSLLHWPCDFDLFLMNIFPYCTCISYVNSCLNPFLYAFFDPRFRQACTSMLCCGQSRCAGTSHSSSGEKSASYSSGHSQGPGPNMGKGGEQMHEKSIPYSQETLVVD

SMILES	pEC50
COCC1(n2c(NS(=O)(=O)[C@@H](C)[C@H](OC)c3ncc(Cl)cn3)nnc2[C@H]2COCCO2)CC1 (single isomer, unassigned) [Example 342.0, (1R,2S)-N-(5-((S)-1,4-dioxan-2-yl)-4-(1-(methoxymethyl)cyclopropyl)-4H-1,2,4-triazol-3-yl)-1-(5-chloropyrimidin-2-yl)-1-methoxypropane-2-sulfonamide or (1R,2S)-N-(5-((R)-1,4-dioxan-2-yl)-4-(1-(methoxymethyl)cyclopropyl)-4H-1,2,4-triazol-3-yl)-1-(5-chloropyrimidin-2-yl)-1-methoxypropane-2-sulfonamide]	7.00
COc1cccc(OC)c1-n1c(NS(=O)(=O)[C@@H](C)[C@H](C)c2ncc(Cl)cn2)nnc1[C@H]1CCC(=O)N1 (single isomer, unassigned) [Example 343.0, (2S,3R)-3-(5-chloropyrimidin-2-yl)-N-(4-(2,6-dimethoxyphenyl)-5-((R)-5-oxopyrrolidin-2-yl)-4H-1,2,4-triazol-3-yl)butane-2-sulfonamide or (2S,3R)-3-(5-chloropyrimidin-2-yl)-N-(4-(2,6-dimethoxyphenyl)-5-((S)-5-oxopyrrolidin-2-yl)-4H-1,2,4-triazol-3-yl)butane-2-sulfonamide]	6.14
COc1cccc(OC)c1-n1c(NS(=O)(=O)[C@@H](C)[C@H](C)c2ncc(Cl)cn2)nnc1[C@H]1CCC(=O)N1 (single isomer, unassigned) [Example 344.0, (2S,3R)-3-(5-chloropyrimidin-2-yl)-N-(4-(2,6-dimethoxyphenyl)-5-((R)-5-oxopyrrolidin-2-yl)-4H-1,2,4-triazol-3-yl)butane-2-sulfonamide or (2S,3R)-3-(5-chloropyrimidin-2-yl)-N-(4-(2,6-dimethoxyphenyl)-5-((S)-5-oxopyrrolidin-2-yl)-4H-1,2,4-triazol-3-yl)butane-2-sulfonamide]	6.64
COCC(COC)n1c(NS(=O)(=O)[C@@H](C)[C@@H](OC(C)C)c2ncc(Cl)cn2)nnc1[C@@H]1COCCO1 (single isomer, unassigned) [Example 356.0, (1S,2S)-1-(5-chloro-2-pyrimidinyl)-N-(4-(1,3-dimethoxy-2-propanyl)-5-((2R)-1,4-dioxan-2-yl)-4H-1,2,4-triazol-3-yl)-1-(2-propanyloxy)-2-propanesulfonamide or (1S,2S)-1-(5-chloro-2-pyrimidinyl)-N-(4-(1,3-dimethoxy-2-propanyl)-5-((2S)-1,4-dioxan-2-yl)-4H-1,2,4-triazol-3-yl)-1-(2-propanyloxy)-2-propanesulfonamide]	7.59
COCC(COC)n1c(NS(=O)(=O)[C@@H](C)[C@@H](OC(C)C)c2ncc(Cl)cn2)nnc1[C@@H]1COCCO1 (single isomer, unassigned) [Example 357.0, (1S,2S)-1-(5-chloro-2-pyrimidinyl)-N-(4-(1,3-dimethoxy-2-propanyl)-5-((2R)-1,4-dioxan-2-yl)-4H-1,2,4-triazol-3-yl)-1-(2-propanyloxy)-2-propanesulfonamide or (1S,2S)-1-(5-chloro-2-pyrimidinyl)-N-(4-(1,3-dimethoxy-2-propanyl)-5-((2S)-1,4-dioxan-2-yl)-4H-1,2,4-triazol-3-yl)-1-(2-propanyloxy)-2-propanesulfonamide]	6.55
COc1ncnc(OC)c1-n1c(NS(=O)(=O)[C@@H](C)[C@H](C)c2ccc(C#N)cn2)nnc1[C@H]1CCOC1 (single isomer, unassigned) [Example 382.0, (2S,3R)-3-(5-cyano-2-pyridinyl)-N-(4-(4,6-dimethoxy-5-pyrimidinyl)-5-((3R)-tetrahydro-3-furanyl)-4H-1,2,4-triazol-3-yl)-2-butanesulfonamide or (2S,3R)-3-(5-cyano-2-pyridinyl)-N-(4-(4,6-dimethoxy-5-pyrimidinyl)-5-((3S)-tetrahydro-3-furanyl)-4H-1,2,4-triazol-3-yl)-2-butanesulfonamide]	6.57
COc1ncnc(OC)c1-n1c(NS(=O)(=O)[C@@H](C)[C@H](C)c2ccc(C#N)cn2)nnc1[C@H]1CCOC1 (single isomer, unassigned) [Example 383.0, (2S,3R)-3-(5-cyano-2-pyridinyl)-N-(4-(4,6-dimethoxy-5-pyrimidinyl)-5-((3R)-tetrahydro-3-furanyl)-4H-1,2,4-triazol-3-yl)-2-butanesulfonamide or (2S,3R)-3-(5-cyano-2-pyridinyl)-N-(4-(4,6-dimethoxy-5-pyrimidinyl)-5-((3S)-tetrahydro-3-furanyl)-4H-1,2,4-triazol-3-yl)-2-butanesulfonamide]	6.17
COc1cccc(OC)c1-n1c(NS(=O)(=O)CCc2ncc(Cl)cn2)nnc1[C@H]1CCOC1 (single isomer, unassigned) [Example 390.0]	6.48
COc1cccc(OC)c1-n1c(NS(=O)(=O)[C@@H](C)[C@H](C)c2ncc(Cl)cn2)nnc1[C@@H]1COC(C)(C)C1 (single isomer, unassigned) [Example 393.0, (2S,3R)-3-(5-chloro-2-pyrimidinyl)-N-(4-(2,6-dimethoxyphenyl)-5-((3R)-5,5-dimethyltetrahydro-3-furanyl)-4H-1,2,4-triazol-3-yl)-2-butanesulfonamide or (2S,3R)-3-(5-chloro-2-pyrimidinyl)-N-(4-(2,6-dimethoxyphenyl)-5-((3S)-5,5-dimethyltetrahydro-3-furanyl)-4H-1,2,4-triazol-3-yl)-2-butanesulfonamide]	7.74
COc1cccc(OC)c1-n1c(NS(=O)(=O)[C@@H](C)[C@H](C)c2ncc(Cl)cn2)nnc1[C@@H]1COC(C)(C)C1 (single isomer, unassigned) [Example 394.0, (2S,3R)-3-(5-chloro-2-pyrimidinyl)-N-(4-(2,6-dimethoxyphenyl)-5-((3R)-5,5-dimethyltetrahydro-3-furanyl)-4H-1,2,4-triazol-3-yl)-2-butanesulfonamide or (2S,3R)-3-(5-chloro-2-pyrimidinyl)-N-(4-(2,6-dimethoxyphenyl)-5-((3S)-5,5-dimethyltetrahydro-3-furanyl)-4H-1,2,4-triazol-3-yl)-2-butanesulfonamide]	7.70
COc1cccc(OC)c1-n1c(NS(=O)(=O)[C@@H](C)[C@H](C)c2ncc(F)cn2)nnc1[C@@H]1COC(C)(C)C1 (single isomer, unassigned) [Example 395.0, (2S,3R)-N-(4-(2,6-dimethoxyphenyl)-5-((3R)-5,5-dimethyltetrahydro-3-furanyl)-4H-1,2,4-triazol-3-yl)-3-(5-fluoro-2-pyrimidinyl)-2-butanesulfonamide or (2S,3R)-N-(4-(2,6-dimethoxyphenyl)-5-((3S)-5,5-dimethyltetrahydro-3-furanyl)-4H-1,2,4-triazol-3-yl)-3-(5-fluoro-2-pyrimidinyl)-2-butanesulfonamide]	7.17
COc1cccc(OC)c1-n1c(NS(=O)(=O)[C@@H](C)[C@H](C)c2ncc(F)cn2)nnc1[C@@H]1COC(C)(C)C1 (single isomer, unassigned) [Example 396.0, (2S,3R)-N-(4-(2,6-dimethoxyphenyl)-5-((3R)-5,5-dimethyltetrahydro-3-furanyl)-4H-1,2,4-triazol-3-yl)-3-(5-fluoro-2-pyrimidinyl)-2-butanesulfonamide or (2S,3R)-N-(4-(2,6-dimethoxyphenyl)-5-((3S)-5,5-dimethyltetrahydro-3-furanyl)-4H-1,2,4-triazol-3-yl)-3-(5-fluoro-2-pyrimidinyl)-2-butanesulfonamide]	7.24
COc1cccc(OC)c1-n1c(NS(=O)(=O)[C@@H](C)[C@H](OC)c2ncc(Cl)cn2)nnc1[C@H]1CCC(=O)N1 (single isomer, unassigned) [Example 397.0, (1R,2S)-1-(5-chloro-2-pyrimidinyl)-N-(4-(2,6-dimethoxyphenyl)-5-((2R)-5-oxo-2-pyrrolidinyl)-4H-1,2,4-triazol-3-yl)-1-methoxy-2-propanesulfonamide or (1R,2S)-1-(5-chloro-2-pyrimidinyl)-N-(4-(2,6-dimethoxyphenyl)-5-((2S)-5-oxo-2-pyrrolidinyl)-4H-1,2,4-triazol-3-yl)-1-methoxy-2-propanesulfonamide]	6.80
COc1cccc(OC)c1-n1c(NS(=O)(=O)[C@@H](C)[C@H](OC)c2ncc(Cl)cn2)nnc1[C@H]1CCC(=O)N1 (single isomer, unassigned) [Example 398.0, (1R,2S)-1-(5-chloro-2-pyrimidinyl)-N-(4-(2,6-dimethoxyphenyl)-5-((2R)-5-oxo-2-pyrrolidinyl)-4H-1,2,4-triazol-3-yl)-1-methoxy-2-propanesulfonamide or (1R,2S)-1-(5-chloro-2-pyrimidinyl)-N-(4-(2,6-dimethoxyphenyl)-5-((2S)-5-oxo-2-pyrrolidinyl)-4H-1,2,4-triazol-3-yl)-1-methoxy-2-propanesulfonamide]	6.25
COc1cccc(OC)c1-n1c(NS(=O)(=O)[C@@H](C)[C@@H](OC(C)C)c2ncc(Cl)cn2)nnc1[C@H]1CCC(=O)N1 (single isomer, unassigned) [Example 399.0, (1S,2S)-1-(5-chloro-2-pyrimidinyl)-N-(4-(2,6-dimethoxyphenyl)-5-((2R)-5-oxo-2-pyrrolidinyl)-4H-1,2,4-triazol-3-yl)-1-(2-propanyloxy)-2-propanesulfonamide or (1S,2S)-1-(5-chloro-2-pyrimidinyl)-N-(4-(2,6-dimethoxyphenyl)-5-((2S)-5-oxo-2-pyrrolidinyl)-4H-1,2,4-triazol-3-yl)-1-(2-propanyloxy)-2-propanesulfonamide]	6.33
COc1cccc(OC)c1-n1c(NS(=O)(=O)[C@@H](C)[C@@H](OC(C)C)c2ncc(Cl)cn2)nnc1[C@H]1CCC(=O)N1 (single isomer, unassigned) [Example 400.0, (1S,2S)-1-(5-chloro-2-pyrimidinyl)-N-(4-(2,6-dimethoxyphenyl)-5-((2R)-5-oxo-2-pyrrolidinyl)-4H-1,2,4-triazol-3-yl)-1-(2-propanyloxy)-2-propanesulfonamide or (1S,2S)-1-(5-chloro-2-pyrimidinyl)-N-(4-(2,6-dimethoxyphenyl)-5-((2S)-5-oxo-2-pyrrolidinyl)-4H-1,2,4-triazol-3-yl)-1-(2-propanyloxy)-2-propanesulfonamide]	6.48
